Experimental data as given in patent US20240058344A1, “METHODS OF TREATING NEURODEGENERATIVE DISORDERS AND STAT3-LINKED CANCERS USING SUPPRESSORS OF ELECTRON LEAK” (Cornell University, priority 2020, published 2024).

Columns and labels:
[1] = Brain levels of compound after i.p. injection or oral consumption (pharmacokinetics); format: in vivo, mice
Description: (FIGS. 1A-B) Levels of S3QEL2 (FIG. 1A) and S1QEL1.1 (FIG. 1B) in the brain following a single i.p. injection or oral consumption (per oral, PO), which improved duration of exposure. n=3-6 wild-type mice per group. (FIGS. 1C-D) Body weights of male nontransgenic (NTG) or hTauP301S mice treated with S3QEL2 (FIG. 1C) (S3, 5 mg/kg/day, PO in almond butter), S1QEL1.1 (FIG. 1D) (10 mg/kg/day, PO in almond butter), or vehicle. (FIG. 1E) Levels of S3QEL2 in the mouse brain following almond butter (AB) or chow administration at indicated doses for 21 days. (n=15 mice per dose). n=3-15 wild-type mice per condition. (FIG. 1F) Body weight of 4-5-month-old wild-type male mice treated with formulated chow containing S3QEL2 at indicated doses and durations (n=15 mice per dose).
A series of pharmacokinetic and drug tolerance experiments with S3QEL2 in adult wild-type and transgenic hTauP301S mice was first performed. Different administration routes and drug formulations were tested. […] Chow that was formulated to deliver 0, 5, 15, or 30 mg/kg/day of S3QEL2 was also tested.

[2] = Solubility in aqueous solutions; format: physicochemical
Nrf2 = test: Hippocampal RNA levels of Nrf2 in hTauP301S mice; format: in vivo; settings: 5 mg/kg/day, six weeks
ASC/Pycard; CD11b = test: Immunolabeling of ASC/Pycard and CD11b in hippocampal tissue of hTauP301S mice; format: in vivo; settings: 6 weeks oral dosing
From the text: Levels of immunolabeling for the inflammasome protein ASC/Pycard (FIG. 6A) and the microglial marker CD11b (FIG. 6B) in hippocampal tissue from nontransgenic (NTG) and hTauP301S mice after 6 weeks of oral dosing with S3QEL2 or vehicle. n=3-6 mice per group. *p<0.05, **p<0.01, ***p<0.001, ANOVA with Dunnett's test.
As assessed by immunolabeling, hTauP301S mice treated with S3QEL2 also had reduced levels of glial fibrillary acidic protein (GFAP)-positive astrogliosis and phosphorylated tau (FIG. 7). Western blotting confirmed reduced levels of phosphorylated but not total tau in these mice (FIG. 5).

primary astrocytes = test: Markers of reactivity in primary astrocytes treated with oligomeric Aβ (qRT-PCR); format: cell-based, mice; settings: oligomeric Aβ 3 μM, S3QEL2 20 μM, 24 h
Description: (FIGS. 11A-11B) Astrocytes isolated from P2-P3 mice were treated with oligomeric Aβ (3 μM) and S3QEL2 (S3, 20 μM) or vehicle (V) for 24 h and analyzed by qRT-PCR (FIG. 11A) or Western blotting (B) and normalized to vehicle controls. (FIG. 11B) Phospho-STAT3 levels were normalized to total STAT3 per sample. n=3 wells per condition; *p<0.05, **p<0.01, ***p<0.001, ANOVA with Dunnett's test.
To further assess if S3QELs alter glial functions, the effects of S3QEL2 on isolated astrocytes and microglia was tested. […] These markers included genes associated with neurodegeneration and aging, such as complement component C3, which promotes synapse elimination in disease, and phosphorylated STAT3, which is considered a central regulator of astrocytic reactivity.

[3] = system: U-87 MG glioblastoma cells; test: Glioblastoma cell proliferation, DAPI staining of cell nuclei, U-87 MG; format: cell-based, human; settings: 72 h
Description: Cell density was measured using DAPI staining of cell nuclei and quantification of fluorescence intensities. n=3 wells per condition. […] STAT3 levels were measured by Western blotting. STAT3 levels were normalized to γ-tubulin levels within each cell lysate and expressed as fold change relative to U-87MG cells. n=4 wells per condition. **p<0.01, ***p<0.001 vs. 0 μM or U-87MG, one-way ANOVA with Dunnett's multiple comparisons test.
Briefly, two complementary methods were used to assess cell proliferation, including the CellTiter-Glo assay and DAPI staining of cell nuclei. The effects of S3QEL2 treatment on A-172, T98G, and U-87 MG cells were measured at different drug concentrations (0, 6, 20, 30, 40, or 50 μM) and time-points after treatment (72 or 96 hours). S3QEL2 inhibits proliferation of A-172 and T98G glioblastoma cells in a highly dose-dependent manner and these effects are similar at different time-points (FIG. 15A-B).

[4] = system: astrocytic H2O2 production; test: Released H2O2 from primary astrocytes (Amplex UltraRed); format: cell-based, mice; settings: S3QEL2 20 μM, S3QEL1.2 1 μM, approximately 24 h
Description: (FIG. 17A) Astrocytes isolated from P2-P3 mice were treated with A1 cocktail consisting of 30 ng/ml TNF-α, 3 ng/ml IL-1α, and 400 ng/ml Clq, and S3QEL1.2 (3 μM) or vehicle for approximately 6 h and analyzed by Western blotting. Phospho-STAT3 levels were normalized to total STAT3 per sample. n=6 wells per condition. **p<0.01, ***p<0.001, one-way ANOVA with Dunnett's multiple comparisons test. (FIG. 17B) Astrocytes isolated from P2-P3 mice were treated with A1 cocktail consisting of 30 ng/ml TNF-α, 3 ng/ml IL-1α, and 400 ng/ml Clq for 24 h, and analyzed for levels of released H2O2 using Amplex UltraRed, a fluorogenic substrate that is a highly sensitive indicator of H2O2, in the presence of horseradish peroxidase and superoxide dismutase. n=6 wells per condition. *p=0.01, Student's t test. (FIG. 17C) Astrocytes isolated from P2-P3 mice were treated with vehicle or 3 ng/ml IL-1α and either S3QEL2 (20 μM), S3QEL1.2 (1 μM), or vehicle for approximately 24 h, and analyzed for levels of released H2O2 using Amplex UltraRed. n=6 wells per condition. *p<0.05, **p<0.01, ***p<0.001, two-way ANOVA with Bonferroni's multiple comparisons test. […]

With `CCCN(CCC)c1ncnc2c1cnn2-c1ccc(C)c(C)c1` [S3QEL2] the “Crossing of the blood-brain barrier (levels in the brain)” value ([1]; after peripheral administration, wild-type mice) was “readily crossed the blood-brain barrier”, the “Increase in the area under the curve of drug presence in the brain, oral intake as compared to i.p. injection” value ([1]; brain, oral vs intraperitoneal) was 6 fold and the “Chronic delivery to the brain by formulated chow” value ([1]; chow vs almond butter, 21 days, wild-type mice) was “equally effective in chronically delivering S3QEL2 to the brain”. For the same compound, the “Solubility in aqueous solutions” value [2] was “limited solubility in aqueous solutions”, the “Hippocampal Nrf2 RNA levels” value (Nrf2) was “reduced” and the ASC/Pycard protein immunolabeling (ASC/Pycard; CD11b) was “reduced”. For the same compound, the CD11b protein immunolabeling (ASC/Pycard; CD11b) was “reduced”, the “Markers of reactivity (genes incl. complement component C3)” value (primary astrocytes) was “reduced markers of reactivity” and the “Cell proliferation (cell density, DAPI staining)” value [3] was “but not U-87 MG cells”. The “Increases in astrocytic H2O2 levels induced by IL-1α” value ([4]; IL-1α 3 ng/ml) was “suppressed the increases” and the “Baseline astrocytic H2O2 levels” value ([4]; vehicle) was “minimal effects”.
